# Laboratory results as given in PMC9246773, “Assessing the Activity of Antimicrobial Peptides Against Common Marine Bacteria Located in Rotifer (Brachionus plicatilis) Cultures” (Probiotics and Antimicrobial Proteins, 2022).
# No end group written: not given here.
# Assays:
# Type in all cases: cell-based
# Vibrio scophthalmi = conditions: 48 h
# Experimental: (§1) A range of bacterial species with the potential to be transferred to developing fish larvae as pathogens or probiotics were selected for use in the study (Table 2). Bacterial isolates were stored at −80 °C and thawed, and 25 µL of the isolates was spread onto marine salt agar (MSA) media. All isolates were incubated at 25 °C for 18 h to reach mid-log growth phase. All isolates were sub-cultured and identified using mass spectrometry (MALDI-TOF) using the BioTyper and MBT 8468 library (Bruker Pty Ltd). The isolate Tenacibaculum discolor was plated on Anacker and Oradal’s marine (AOM) media, incubated for 48 h and identified using the aforementioned method. Bacterial isolates were suspended in sterile saline (0.75% NaCl w/v) to 0.5 McFarland standard. […] The bacterial isolates T. discolor and Pseudoalteromonas sp. require marine salts to grow and were not added to MHB (0‰). The isolate T. discolor requires low nutrients to grow, therefore, a separate MHB (25‰) was prepared at a diluted ratio of 1 part MHB and 7 parts artificial seawater (25‰).
# (§2) The protocol was followed to determine the minimum inhibitory concentration (MIC) of the selected peptides. Two MIC assays were performed, firstly to determine whether each peptide precipitated in MHB and thereby required acetic acid adjustments (supplementary materials) and secondly, to determine the antimicrobial activity of each peptide in artificial seawater (25‰). Peptide stock solutions (1.3 mg mL^−1) were made by diluting the peptides in sterile deionised water. MHB was made with deionised water to reach a concentration of approaching 0‰ and artificial sea salts (Sigma-Aldrich® S9883) to reach a salinity of 25‰.
# (§3) Once the acetic acid requirement for each peptide was determined (Table 3), the antimicrobial activity of each peptide was tested at a salinity of 0‰ and 25‰ for all bacterial isolates. A stock solution for peptides that required acetic acid was prepared by a 1:2 dilution in acetic acid (0.02% acetic acid w/v, containing 0.4% BSA) solution. In a 96-well polypropylene microtitre plates (Costar® 3879), 100 µL of this peptide stock was added to the first well for each bacterial isolate tested and serially diluted twofold with acetic acid (0.01% acetic acid w/v, containing 0.2% BSA). From each well, 10 µL of each peptide concentration was added to the corresponding wells of a new 96-well microtitre plate. From each of the bacterial suspensions (0‰), 90 µL was added to each well. […] Twofold serial dilutions were made with MHB (0‰). From each of the bacterial suspensions (0‰), 50 µL was added to each well. The same method was followed for testing peptides in MHB at 25‰. All peptide concentrations ranged from 0.125 to 65 µg mL^−1, and the bacterial suspension in each well was approximately 5 × 10^5 CFU mL^−1. The different salinities were used to compare any differences in antimicrobial activity in 0‰ and 25‰ water. […] Each bacterium was trialled in duplicate.
# Shewanella sp. = conditions: 48 h
# Experimental: as §1, §2, §3
# Pseudoalteromonas sp. = conditions: 48 h
# Experimental: as §1, §2, §3
# Vibrio harveyi = conditions: 48 h
# Experimental: as §1, §2, §3
# [1] = tested on: Vibrio harveyi (ATCC 35084); conditions: ATCC 35084, 48 h
# Experimental: as §1, §2, §3
# Tenacibaculum discolor = conditions: 48 h
# Experimental: as §1, §2, §3
# [2] = tested on: Escherichia coli (ATCC 25922); conditions: ATCC 25922, 48 h
# Experimental: as §1, §2, §3
# Vibrio alginolyticus = conditions: 48 h
# Experimental: as §1, §2, §3
# Vibrio rotiferianus = conditions: 48 h
# Experimental: as §1, §2, §3
substance,measurement,setting,value
KRWWKWWRR-NH2 [HHC36],"MIC V. scophthalmi, salinity 0‰",Vibrio scophthalmi,2.03 µg/mL
same,"MIC V. scophthalmi, salinity 25‰",Vibrio scophthalmi,> 65 µg/mL
same,"MIC Shewanella sp., salinity 25‰",Shewanella sp.,> 65 µg/mL
same,"MIC Pseudoalteromonas sp., salinity 25‰",Pseudoalteromonas sp.,> 65 µg/mL
same,"MIC V. harveyi, salinity 0‰",Vibrio harveyi,32.5 µg/mL
same,"MIC V. harveyi, salinity 25‰",Vibrio harveyi,> 65 µg/mL
same,"MIC V. harveyi ATCC 35084, salinity 0‰",[1],32.5 µg/mL
same,"MIC V. harveyi ATCC 35084, salinity 25‰",[1],> 65 µg/mL
same,"MIC T. discolor, salinity 25‰",Tenacibaculum discolor,> 65 µg/mL
same,"MIC E. coli ATCC 25922, salinity 0‰",[2],2.03 µg/mL
same,"MIC E. coli ATCC 25922, salinity 25‰",[2],> 65 µg/mL
same,"MIC V. alginolyticus, salinity 0‰",Vibrio alginolyticus,> 65 µg/mL
same,"MIC V. alginolyticus, salinity 25‰",Vibrio alginolyticus,> 65 µg/mL
same,"MIC V. rotiferianus, salinity 0‰",Vibrio rotiferianus,> 65 µg/mL
same,"MIC V. rotiferianus, salinity 25‰",Vibrio rotiferianus,> 65 µg/mL
